Source: patent US20220257552A1, “METHODS OF PRESCREENING AND TREATING BREAST CANCERS WITH SELECTIVE ANDROGEN RECEPTOR MODULATORS” (priority 2021, published 2022)

Columns and labels:
[1] = tested on: HCI-9 PDX; assay: HCI-9 patient-derived xenograft in NSG mice; format: in vivo; details: Formula IX 10 mpk, enzalutamide 30 mpk p.o.
Experimental: All animal protocols were approved by The University of Tennessee Health Science Center (UTHSC) Institutional Animal Care and Use Research Committee. Xenograft experiments were performed as previously published (Narayanan et al. (2014) PLoS One 9, e103202). Briefly, 3 million MCF-7 cells were suspended in 0.05 ml MEM+10% FBS and 0.05 ml Matrigel/nude mouse and were injected subcutaneously. Once the tumor size reached 100-200 mm^3, the animals were randomized and treated orally with the indicated drugs formulated in DMSO:PEG-300 (15:85). HCI-7, HCI-9, and HCI-13 PDXs were gifts kindly donated by Dr. Alana Welm (Huntsman Cancer Institute, Salt Lake City, Utah). HCI PDX tumor fragments (1 mm^3) were surgically implanted under the mammary fat pad in female NOD SCID Gamma (NSG) mice. Tumor volume was measured twice weekly for MCF-7 xenograft and once or twice weekly for HCI PDXs. At the end of the study, animals were sacrificed and tumors were excised, weighed, and stored for various analyses.
To determine if the same effect is observed in an AR-positive, but ER-negative breast cancer, HCI-9 tumor fragments were implanted under the mammary fat pad of NSG mice.

[2] = tested on: BR-0001 TNBC; assay: BR-0001 AR-positive TNBC xenograft in NSG mice; format: in vivo
Experimental: Xenograft experiment. NSG mice obtained from JAX labs were housed with five animals per cage and were allowed free access to tap water and commercial rat chow (Harlan Teklad 22/5 rodent diet—8640). During the course of the study, the animals were maintained on a 12 hr light:dark cycle. Animals were anesthetized and BR-0001 TNBC fragments of 1 mm^3 (approximately) were implanted subcutaneously in NSG mice. […] Tumor volume was measured thrice weekly. Tumor volume was calculated using the formula length×width×width×0.5236. Once tumors reached greater than 1500-2000 mm^3, animals were sacrificed and tumors weighted and stored for various analysis. Two regions of the same BR-0001 tumor, an AR-positive TNBC xenograft, were immunohistochemically stained with AR antibody (AR N20 from SCBT) (FIGS. 26A and 26B) and compared to an AR-negative (FIG. 26C) TNBC as a negative control. […] The tumor xenograft efficacy experimental results are provided in 27A-27C, with FIGS. 27A and 27B being replicate experiments.
Tumors from replicate experiment 2 (FIG. 27B) were fixed in formalin and paraffin embedded. Slides were cut and stained with Ki-67 antibody. Ki-67 positive cells (total 200 cells were counted in each slide) in each slide were counted and represented as % stained cells, as shown in FIG. 28B.

[3] = tested on: metastatic or locally advanced ER+/AR+ breast cancer; assay: Phase 2 trial G200802, 9 mg or 18 mg daily, ER+/AR+ breast cancer; format: in vivo, human; details: for ORR / Best overall objective tumor response, CR (patients) / Best overall objective tumor response, PR (patients): post-hoc; for Best overall objective tumor response, CR (patients) / Best overall objective tumor response, PR (patients): all evaluable patients
Experimental: Each dose arm was treated independently, and each assessed for efficacy using Simon's two-stage (optimal) design (Simon R. Optimal two-stage designs for Phase 2 clinical trials. Controlled Clinical Trials 1989; 10: 1-10). Subjects were randomized in a 1:1 fashion to one of the two dose arms.
Randomization was stratified by subjects presenting with bone only metastases and all other subjects, and further by setting of immediately preceding therapy (adjuvant setting or metastatic setting) in order to balance the proportion of subjects with these presenting features in each dose arm.
Thirty-six to eighty-eight (36-88) subjects with centrally confirmed AR+ who received at least one dose of study drug (evaluable subjects) were needed for primary efficacy analysis purposes and were a subset of the full analysis set (FAS). Fifty patients in the 9 mg cohort and 52 patients in the 18 mg cohort met these criteria. […] Other statistical parameters that were part of the sample size calculation are α=0.025 (one-sided) and power=90%. The first stage in each study arm was assessed among the first 18 evaluable subjects. Greater than 3/18 subjects achieved CB (defined as CR, PR, or SD) at week 24, and both arms proceeded to the second stage of recruitment up to a total of 44 evaluable subjects per arm. Otherwise, the arm would have been discontinued for lack of efficacy. Statistical significance, i.e., rejection of the null hypothesis of an unacceptably low CBR of ≤10% in favor of the alternative hypothesis that indicated the higher rate, ≥30%, was more likely, would be declared if at least 9/44 subjects achieved CB at week 24 in that arm.
These patients on the study had measurable disease at baseline and an AR staining prior to entry into the study. The radiographic imaging in this patient population was done every 12 weeks (2.7 months). Therefore, the minimum radiographic progression free survival (rPFS) that could be determined is approximately 2.7 months. 90% of the patients in the study had previously received non-endocrine based chemotherapy. The patients in this study had failed an average of 2 prior treatment lines for metastatic disease (range=0-5). FIG. 43 provides a scatterplot for the patients in this study with regard to the correlation between % AR-positive staining at baseline (% AR staining) and rPFS. […] However, in patients with greater than or equal to 40% AR-positive staining, the rPFS was delayed to variable extents (scatter plot pattern) in many to most cases. A positive correlation between rPFS and % AR staining was seen above the threshold of 40% AR staining. To explore this positive correlation further, several subgroups of AR % staining were defined and analyzed for metrics of efficacy, as shown in Table 14.

[4] = tested on: MCF-7-AR tumors; assay: Phospho MAPK array of MCF-7-AR tumors; set-up: species or system mice; details: mouse, in vivo
Experimental: Protein from MCF-7-AR tumors that were treated with vehicle or compound of Formula VIII were extracted and incubated with phospho MAPK array to determine the effect of compound of Formula VIII on phosphorylation of various kinases.

C[C@](O)(COc1ccc(C#N)cc1)C(=O)Nc1ccc(C#N)c(C(F)(F)F)c1 [Formula IX, (S)—N-(4-Cyano-3-(trifluoromethyl)phenyl)-3-(4-cyanophenoxy)-2-hydroxy-2-methylpropanamide]
tumor growth trajectory [1]: Neither Formula IX nor enzalutamide altered the growth trajectory | tumor growth ([2]; 10 mg/kg/day Formula IX or enzalutamide orally): some tumor growth inhibition | tumor weight reduction ([2]; experiment 2): ~40% | responders with duration of response ≥6 months ([3]; 9 mg): 67% | responders with duration of response ≥12 months ([3]; 9 mg): 25% | Quality of life assessments ([3]; 9 mg and 18 mg cohorts, p=0.002): significant improvement from baseline | tolerability ([3]; 9 mg and 18 mg doses): well tolerated | patients with complete response ([3]; 9 mg arm, 3 patients who failed palbociclib): 33% | Median duration of clinical benefit ([3]; 9 mg group): not reached | rPFS ([3]; 9 mg, AR nuclei staining <40%): 2.72 months | ORR ([3]; 9 mg, AR nuclei staining <40% (0/22)): 0% | rPFS ([3]; 9 mg, AR nuclei staining ≥40%): 5.47 months | ORR ([3]; 9 mg, AR nuclei staining ≥40% (12/25)): 48% | Best overall objective tumor response, CR (patients) ([3]; 9 mg): 3 | Best overall objective tumor response, PR (patients) ([3]; 9 mg): 8 | median duration of response ([3]; 9 mg, patients with objective tumor response, range 2.73 to >27.83): 8.18 months | response rate ([3]; 18 mg arm, 6 patients who failed palbociclib): 33% | Median duration of clinical benefit ([3]; 18 mg group (11 months-16.5 months)): 14.1 months | Best overall objective tumor response, CR (patients) ([3]; 18 mg): 1 | Best overall objective tumor response, PR (patients) ([3]; 18 mg): 5 | objective response in ≥60% AR subgroup ([3]; progressed on estrogen blocking agents and CDK 4/6 inhibitor, 4 patients): 75% | patients with an objective response ([3]; progressed on estrogen blocking agents and CDK 4/6 inhibitor, AR ≥40% (7 patients)): 3 patients

C[C@](O)(COc1ccc(C#N)cc1)C(=O)Nc1ccc(C#N)c(Cl)c1 [Formula VIII, (S)—N-(3-chloro-4-cyanophenyl)-3-(4-cyanophenoxy)-2-hydroxy-2-methylpropanamide]
JNK phosphorylation [4]: upregulated
